In US11230593B2, “Compositions and methods for treating and preventing influenza” (VISTERRA, INC., priority 2019, dated 2022):
Where two headings read alike, the source gives them in different places.

What was measured:
[1] = test system: A/Michigan/45/2015 (H1N1); experiment: microbe, parasite or virus in culture; type: cell-based, Influenza A
[2] = test system: A/Hong Kong/4801/2014 (H3N2); experiment: microbe, parasite or virus in culture; type: cell-based, Influenza A
[3] = test system: A/PR/8/1934 (H1N1) (wild-type); experiment: microbe, parasite or virus in culture; type: cell-based; settings: Influenza A virus
[4] = test system: A/California/04/2009 (H1N1); experiment: microbe, parasite or virus in culture; type: cell-based; settings: Influenza A virus
[5] = in vivo, cited from earlier work
[6] = read-out: EC50 (μM) - Replicate 1
[7] = read-out: EC50 (μM) - Replicate 2

With `CCC(CC)[C@H](NC(C)=O)[C@@H]1[C@H](O)[C@@H](C(=O)O)C[C@H]1N=C(N)N.O.O.O` [Peramivir (PER), Peramivir trihydrate] the EC50 [1, 6] was 0.01 µM, the EC50 [1, 7] was < 0.006 µM and the EC50 [2] was “the most potent NAI”. It also gave an EC50 ([2]; read-out: EC50) of 0.057 µM.

Compound `CC(=O)N[C@H]1[C@H]([C@H](O)[C@H](O)CO)OC(C(=O)O)=C[C@@H]1N=C(N)N` [Zanamivir (ZAN), Zanamivir] has an EC50 ([1]; Influenza A virus, H1N1, MDCK, read-out: EC50 (μM) - Replicate 1) of 0.06 µM, an EC50 ([1]; Influenza A virus, H1N1, MDCK, read-out: EC50 (μM) - Replicate 2) of 0.034 µM and an EC50 ([2]; Influenza A virus, H3N2, 40 h) of 2.6 µM.

For `O=C1c2c(O)c(=O)ccn2N([C@@H]2c3ccccc3SCc3c2ccc(F)c3F)[C@@H]2COCCN12` [baloxavir, Baloxavir], the EC50 [3] is listed as ~0.001 µM, the EC50 [4] is listed as 0.001 µM and the Cmax ([5]; 40 mg) is listed as 96.4 ng/mL. The Cmax ([5]; 80 mg) was 107 ng/mL and the EC50 ([2]; Influenza A virus, H3N2) was 0.0008 µM.

With Oseltamivir acid [Oseltamivir (OSE)] the EC50 [1, 6] was 0.18 µM, the EC50 [1, 7] was 0.024 µM and the CC50 (MDCK cells) was >50 µg/mL. For the same compound, the EC50 ([2]; read-out: EC50) was 0.76 µM.
